Measurements taken from article PMC10180065, “Mechanistic Studies of Arene–Ruthenium(II) Complexes with Carbothioamidopyrazoles as Alternative Cancer Drugs” (Molecules, 2023).

How the values were obtained:
[1] = system: HT29; test: MTT cytotoxicity, HT29; type: cell-based, human; conditions: 48 h incubation, read-out: Cytotoxic effect, IC50
Description: (§1) Cytotoxicity was evaluated against fifteen adherent human cancer cell lines using the MTT test: colorectal adenocarcinoma cells Caco2 (ATCC® HTB-37™), colorectal adenocarcinoma cells HT29 (ATCC® HTB-38™), colon colorectal carcinoma HCT116 (ATCC® CCL-247™), colon adenocarcinoma COLO205 (ATCC® CCL-222™), colorectal adenocarcinoma SW620 (ATCC® CCL-227™), colorectal adenocarcinoma grade IV LoVo (ATCC® CCL-229™), hepatocellular carcinoma Hep 3b (ATCC® HB-8064™), endometrium adenocarcinoma HEC1A (ATCC® HTB-112™), Ishikawa (99040201; Sigma–Aldrich Sigma, St. Louis, MO, USA), cervical adenocarcinoma cells HeLa (ATCC® CCL-2™), lung epithelial carcinoma A549 (ATCC® CRM-CCL-185™), breast epithelial adenocarcinoma cell positive for estrogen and progesterone receptors MCF7 (ATCC® HTB-22™) and negative for expression of estrogen receptor HCC38 (ATCC® CRL-2314™), acute promyelocytic leukemia HL-60 (ATCC® CCL-240™), skin melanoma WM115 (ATCC® CRL-1676™), and 1 suspension cancer cell line: acute lymphoblastic leukemia NALM6 (purchased from the German Collection of Microorganisms and Cell Cultures). HT29, NALM6, HCC-38 and HL-60 cells were cultured in RPMI 1640 medium (Thermo Fisher Scientific, Waltham, MA, USA) supplemented with 10% fetal bovine serum and antibiotic (gentamicin 25 μg ml^−1) (Gibco, Grand Island, New York, NY, USA). For the remaining tumor cell lines, Dulbecco’s minimal essential medium (DMEM, Lonza, Visp, Switzerland) supplemented with 10% fetal bovine serum and antibiotic instead of RPMI 1640 was used. In addition, Human Microvascular Endothelial Cells (HMEC1), which were obtained from the American Type Culture Collection (Manassas, VA, USA), were used as a model of normal cells. HMEC-1 were cultured in MCDB131 medium (Corning Life Sciences, Corning, NY, USA), supplemented with 10% fetal bovine serum, 10 ng/mL Epidermal Growth Factor (Millipore, Burlington, MA, USA) and 10 mM glutamine (Corning Life Sciences). All cells were grown at 37 °C in humidified atmosphere of 5% CO2 in air. The exponential growth of cells was maintained by regular passaging at 90% confluence three times a week using 0.025% trypsin/EDTA (Gibco, Grand Island, New York, NY, USA).
(§2) The cytotoxicity was tested by a standard MTT [3-(4,5-dimethylthiazol-2-yl)-2,5-diphenyltetrazolium bromide] (Sigma, St. Louis, MO, USA) microplate cell viability assay. The anticancer activity of the investigated compounds was evaluated in vitro on the basis of their ability to inhibit the proliferation of various cancer cells. Exponentially growing cells were seeded a day before the experiment into a 96-well microplate (Nunc, Roskilde, Denmark) at a density up to 6–8 × 10^3 cells/mL (depending on the cell line) and exposed to the test compounds at a wide range of concentrations for 48 h. Subsequently, various concentrations of the studied compounds (10^−7–10^−5 M) freshly prepared in DMSO (final concentration of <0.1% DMSO) and diluted with complete culture medium were added. After 48 h incubation, the cells were immediately subjected to a cell viability assay. At this time point, the number of viable cells in each well was estimated by the MTT test. Briefly, 50 µL (5 mg/mL final concentration) of MTT was added to each microplate well. This procedure was then followed by a three- to four-hour incubation at 37 °C. After incubation, MTT solution was replaced with 100 µL DMSO/well, which solubilized the formazan crystals formed by the dehydrogenases of metabolically active cells. Purple formazan absorbance was measured spectrophotometrically at 570 nm.

[2] = system: Colo205; test: MTT cytotoxicity, Colo205; type: cell-based, human; conditions: 48 h incubation, read-out: Cytotoxic effect, IC50
Description: as §1, §2

[3] = system: SW620; test: MTT cytotoxicity, SW620; type: cell-based, human; conditions: 48 h incubation, read-out: Cytotoxic effect, IC50
Description: as §1, §2

[4] = system: LoVo; test: MTT cytotoxicity, LoVo; type: cell-based, human; conditions: 48 h incubation, read-out: Cytotoxic effect, IC50
Description: as §1, §2

[5] = system: Caco2; test: MTT cytotoxicity, Caco2; type: cell-based, human; conditions: 48 h incubation, read-out: Cytotoxic effect, IC50
Description: as §1, §2

[6] = system: Hep 3b; test: MTT cytotoxicity, Hep 3b; type: cell-based, human; conditions: 48 h incubation, read-out: Cytotoxic effect, IC50
Description: as §1, §2

[7] = system: HEC1A; test: MTT cytotoxicity, HEC1A; type: cell-based, human; conditions: 48 h incubation, read-out: Cytotoxic effect, IC50
Description: as §1, §2

[8] = system: Ishikawa; test: MTT cytotoxicity, Ishikawa; type: cell-based, human; conditions: 48 h incubation, read-out: Cytotoxic effect, IC50
Description: as §1, §2

[9] = system: Hela; test: MTT cytotoxicity, Hela; type: cell-based, human; conditions: 48 h incubation, read-out: Cytotoxic effect, IC50
Description: as §1, §2

[10] = system: A549; test: MTT cytotoxicity, A549; type: cell-based, human; conditions: 48 h incubation, read-out: Cytotoxic effect, IC50
Description: as §1, §2

[11] = system: HCC38; test: MTT cytotoxicity, HCC38; type: cell-based, human; conditions: 48 h incubation, read-out: Cytotoxic effect, IC50
Description: as §1, §2

[12] = system: MCF7; test: MTT cytotoxicity, MCF7; type: cell-based, human; conditions: 48 h incubation, read-out: Cytotoxic effect, IC50
Description: as §1, §2

[13] = system: WM115; test: MTT cytotoxicity, WM115; type: cell-based, human; conditions: 48 h incubation, read-out: Cytotoxic effect, IC50
Description: as §1, §2

[14] = system: NALM6; test: MTT cytotoxicity, NALM6; type: cell-based, human; conditions: 48 h incubation, read-out: Cytotoxic effect, IC50
Description: as §1, §2

[15] = system: HL60; test: MTT cytotoxicity, HL60; type: cell-based, human; conditions: 48 h incubation, read-out: Cytotoxic effect, IC50
Description: as §1, §2

[16] = system: human microvascular endothelial cell line HMEC1; test: MTT cytotoxicity, normal endothelial cells HMEC1; type: cell-based; conditions: for IC50: HMEC1 normal endothelial cells, 48 h incubation, read-out: Cytotoxic effect, IC50; for IC50 for HMEC-1 higher than for cancer cells (selectivity): HMEC-1 vs cancer cells
Description: as §1, §2

[17] = Lipophilicity by RP-TLC; type: physicochemical; design: key: RM = log(1/Rf − 1), Rf = a/b; conditions: eluent AcCN: H2O at 30–70% v/v, 22 °C
Description: All the experimental solutions of standard substances (0.1 mg/mL) were prepared by dissolving ligands (1a–1d) or ruthenium complexes (2a/3a–2d/3d) in ethanol. Commercially-available octadecyl-modified silica aluminum sheets (20 × 20 cm) were cut into 5 × 10 cm plates. The plates were manually spotted with 1.0 μL of freshly prepared solutions using automatic pipets, 5 mm from each edge. The chromatograms for all compounds (1a/2a/3a–1d/2d/3d) were developed using a horizontal developing chamber and the solvent migration distance was about 4.5 cm. The plates were visually inspected under UV light at 254 nm. Each zone was clearly marked and its distance was manually measured. The RP-TLC analyses of lipophilicity were performed at ambient temperature (22 °C). In this experiment, all measurements were performed in triplicate and the obtained results were used in further calculations. The acetonitrile and water mixtures for ligands 1a–1d and arene–ruthenium(II) complexes 2a/3a–2d/3d were used as mobile phases, with […] content increasing in the range of 30–70% v/v, at 5% intervals. Values of the chromatographic retention coefficient Rf (as shown Formula (1)) and RM (as shown Formula (2)), based on received chromatograms, were calculated and converted as follows:(1) Rf=a/b (2) RM=log1/Rf−1

[18] = system: PARP1; test: Cleaved PARP level (ELISA), WM115 cells; type: cell-based, human; conditions: WM115, 24 h at IC50 concentration
Description: Cells (1 × 10^6) were seeded in 35 mm dishes and cultured for 24 h in the appropriate medium until they reached log phase growth. […] After incubation, the medium was removed, the cells were washed with PBS solution and trypsinized. The harvested cell pellet was lysed in RIPA buffer (50 mM Tris-HCL, pH 8.0, with 150 mM sodium chloride, 1.0% Igepal CA-630 (NP-40), 0.5% sodium deoxychlorate, and 0.1% sodium dodecyl sulfate) with protease inhibitor (phenylmethylsulfonyl fluoride) (Sigma-Aldrich Sigma, St. Louis, MO, USA). The level of cleaved PARP was estimated using the PARP Cleaved [214/215] ELISA kit (Invitrogen, Waltham, MA, USA) according to the protocol described in the manufacturer’s instructions.

[19] = system: HEC1A; test: Mitochondrial potential, JC-1 probe, HEC1A; type: cell-based, human; conditions: IC50 concentration
Description: Cells (10 × 10^3/well) were seeded in black 96-well plates and grown for 24 h to reach the log phase. […] After removing the medium, the cell monolayer was washed twice with PBS solution and 50 μL of the JC-1 probe at a final concentration of 5 μM was added to the wells of the plate. The cells were incubated with the dye for 30 min in a CO2 incubator. Subsequently, the changes in the fluorescence of monomers (λex = 485 nm and λem = 525 nm) and aggregates (λex = 530 nm and λem = 590 nm) using JC-1 were monitored. The results of the tested trials were presented as the ratio of fluorescence of aggregates and JC1 monomers as a percentage of control values, which was assumed to be 100%.

[20] = pH dependent stability of the complexes (UV–Vis); type: physicochemical; conditions: 24 h and 48 h
Description: The stability measurements were performed on a UV 1800 Shimadzu spectrophotometer (Kyoto, Japan) at room temperature. The complexes 2d and 3d were tested for the stabilities in buffer Na2HPO4 (pH 4 and 8). UV–Vis spectra were recorded hourly for 48 h at 22 °C. The spectra were recorded in the range of 200–800 nm over a time course of 0, 24, and 48 h.

[21] = system: HCT116; test: MTT cytotoxicity, HCT116; type: cell-based, human; conditions: 48 h incubation, read-out: Cytotoxic effect, IC50
Description: Cytotoxicity was evaluated against fifteen adherent human cancer cell lines using the MTT test: colorectal adenocarcinoma cells Caco2 (ATCC® HTB-37™), colorectal adenocarcinoma cells HT29 (ATCC® HTB-38™), colon colorectal carcinoma HCT116 (ATCC® CCL-247™), colon adenocarcinoma COLO205 (ATCC® CCL-222™), colorectal adenocarcinoma SW620 (ATCC® CCL-227™), colorectal adenocarcinoma grade IV LoVo (ATCC® CCL-229™), hepatocellular carcinoma Hep 3b (ATCC® HB-8064™), endometrium adenocarcinoma HEC1A (ATCC® HTB-112™), Ishikawa (99040201; Sigma–Aldrich Sigma, St. Louis, MO, USA), cervical adenocarcinoma cells HeLa (ATCC® CCL-2™), lung epithelial carcinoma A549 (ATCC® CRM-CCL-185™), breast epithelial adenocarcinoma cell positive for estrogen and progesterone receptors MCF7 (ATCC® HTB-22™) and negative for expression of estrogen receptor HCC38 (ATCC® CRL-2314™), acute promyelocytic leukemia HL-60 (ATCC® CCL-240™), skin melanoma WM115 (ATCC® CRL-1676™), and 1 suspension cancer cell line: acute lymphoblastic leukemia NALM6 (purchased from the German Collection of Microorganisms and Cell Cultures). […]
The cytotoxicity was tested by a standard MTT [3-(4,5-dimethylthiazol-2-yl)-2,5-diphenyltetrazolium bromide] […] The anticancer activity of the investigated compounds was evaluated in vitro on the basis of their ability to inhibit the proliferation of various cancer cells. […]

Row | SMILES | IC50 [1] [µM] | IC50 [2] [µM] | IC50 [3] [µM] | IC50 [4] [µM] | IC50 [5] [µM] | IC50 [6] [µM] | IC50 [7] [µM] | IC50 [8] [µM] | IC50 [9] [µM] | IC50 [10] [µM] | IC50 [11] [µM] | IC50 [12] [µM] | IC50 [13] [µM] | IC50 [14] [µM] | IC50 [15] [µM] | IC50 [16] [µM] | IC50 for HMEC-1 higher than for cancer cells (selectivity) [16] | Lipophilicity, RM [17] | increase in level of PARP1 degradation compared to controls [18] | other results
1 | CCc1cc(CC)n(C(N)=S)n1.Cc1ccc(C(C)C)cc1.F[P-](F)(F)(F)(F)F.[Cl-].[Ru+2] [3b] | 123 ± 3.7 | 91.6 ± 1.6 | 78.8 ± 7.4 | 99.1 ± 9.4 | 82.4 ± 8.4 | 62.4 ± 2.7 | 40.1 ± 2.1 | 121 ± 3.7 | 101 ± 6.7 | 162 ± 7.9 | > 200 | 132 ± 5.3 | 51.7 ± 5.3 | 18.5 ± 2.3 | 52.9 ± 2.1 | 135 ± 6.7 | 3–5 times | 2.73 | ~140% | decrease in mitochondrial potential (JC-1) [19]: ~50%
2 | Cc1cc(O)n(C(N)=S)n1.Cc1ccc(C(C)C)cc1.[Cl-].[Cl][Ru+] [2d] | 168 ± 7.5 | > 200 | > 200 | > 200 | > 200 | > 200 | 67.8 ± 6.1 | 100 ± 6.7 | 111 ± 1.7 | > 200 | > 200 | > 200 | 8 ± 0.9 | > 200 | > 200 | 163 ± 5.9 | 3–5 times | 1.64 | approximately 115% | Stability, UV–Vis absorption maxima ([20]; pH 4 buffer): did not change; Stability, UV–Vis absorption maxima ([20]; pH 8 buffer): loss absorption
3 | Cl.[Cl-].[Cl-].[Cl-].[Ru+3].c1c[nH]cn1.c1c[nH]cn1 [NAMI-A, reference compound] | > 200 | > 200 | > 200 |  |  | > 200 | > 200 | > 200 |  |  |  | 14.1 ± 1.5 | > 200 | > 200 |  |  |  |  |  | IC50 [21]: > 200 µM
